In the supplement of paper PMC10307832:

How the values were obtained:
Experiment in all cases: relative viability (nuclei count vs DMSO), 5 days (fraction); higher = more cells survive
201T = tested on: 201T
Method in brief: (§1)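 Lung cancer cell lines in 1536-well plates got either a single drug or a fixed anchor-drug dose together with five library-drug doses (not always all listed) in √10 steps, by pin tool, on the day after seeding. Nuclei were counted after 5 days, and relative viability is the treated-to-vehicle ratio of nuclei counts. Values are medians of duplicate plates.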

EKVX = tested on: EKVX
Method in brief: as §1

NCI-H2023 = tested on: NCI-H2023
Method in brief: as §1

NCI-H727 = tested on: NCI-H727
Method in brief: as §1

EMC-BAC-2 = tested on: EMC-BAC-2
Method in brief: as §1

BEN = tested on: BEN
Method in brief: as §1

NCI-H1651 = tested on: NCI-H1651
Method in brief: as §1

LK-2 = tested on: LK-2
Method in brief: as §1

COR-L 105 = tested on: COR-L 105
Method in brief: as §1

HCC-15 = tested on: HCC-15
Method in brief: as §1

NCI-H322M = tested on: NCI-H322M
Method in brief: as §1

PC-3 [JPC-3] = tested on: PC-3 [JPC-3]
Method in brief: as §1

NCI-H838 = tested on: NCI-H838
Method in brief: as §1

HCC-44 = tested on: HCC-44
Method in brief: as §1

NCI-H460 = tested on: NCI-H460
Method in brief: as §1

CAL-12T = tested on: CAL-12T
Method in brief: as §1

NCI-H520 = tested on: NCI-H520
Method in brief: as §1

LU99A = tested on: LU99A
Method in brief: as §1

Q: How did the relative viability (201T; first compound 0.001 µM) turn out when Cc1cn(-c2cc(NC(=O)c3ccc(C)c(Nc4nccc(-c5cccnc5)n4)c3)cc(C(F)(F)F)c2)cn1 [Nilotinib] + CC1(C)CCC(c2ccc(Cl)cc2)=C(CN2CCN(c3ccc(C(=O)NS(=O)(=O)c4ccc(N[C@H](CCN5CCOCC5)CSc5ccccc5)c(S(=O)(=O)C(F)(F)F)c4)cc3)CC2)C1 [Navitoclax] (partner 0.5 µM) was run?
A: The relative viability was 1.22.

Q: What about the relative viability (201T; first compound 0.003162 µM) of the same compound?
A: Its relative viability is 1.29.

Q: What about the relative viability (201T; first compound 0.01 µM) of the same compound?
A: The relative viability was 1.25.

Q: And the relative viability (201T; first compound 0.1 µM)?
A: Its relative viability is 1.21.

Q: What about the relative viability (EKVX; first compound 0.001 µM) of the same compound?
A: Its relative viability is 0.795.

Q: And the relative viability (EKVX; first compound 0.003162 µM)?
A: The relative viability was 1.29.

Q: What about the relative viability (EKVX; first compound 0.01 µM) of the same compound?
A: Its relative viability is 1.42.

Q: What about the relative viability (EKVX; first compound 0.03162 µM) of the same compound?
A: The relative viability was 0.764.

Q: And the relative viability (EKVX; first compound 0.1 µM)?
A: The relative viability was 1.21.

Q: And the relative viability (NCI-H2023; first compound 0.001 µM)?
A: Its relative viability is 0.914.

Q: And the relative viability (NCI-H2023; first compound 0.003162 µM)?
A: The relative viability was 1.13.

Q: And the relative viability (NCI-H2023; first compound 0.01 µM)?
A: Its relative viability is 1.32.

Q: And the relative viability (NCI-H2023; first compound 0.03162 µM)?
A: The relative viability was 1.02.

Q: And the relative viability (NCI-H2023; first compound 0.1 µM)?
A: The relative viability was 1.02.

Q: What about the relative viability (NCI-H727; first compound 0.001 µM) of the same compound?
A: Its relative viability is 0.478.

Q: And the relative viability (NCI-H727; first compound 0.01 µM)?
A: Its relative viability is 0.386.

Q: What about the relative viability (NCI-H727; first compound 0.03162 µM) of the same compound?
A: Its relative viability is 0.385.

Q: What about the relative viability (NCI-H727; first compound 0.1 µM) of the same compound?
A: Its relative viability is 0.253.

Q: What about the relative viability (EMC-BAC-2; first compound 0.001 µM) of the same compound?
A: The relative viability was 0.919.

Q: And the relative viability (EMC-BAC-2; first compound 0.003162 µM)?
A: Its relative viability is 1.45.

Q: What about the relative viability (EMC-BAC-2; first compound 0.01 µM) of the same compound?
A: Its relative viability is 1.69.

Q: And the relative viability (EMC-BAC-2; first compound 0.03162 µM)?
A: The relative viability was 0.852.

Q: What about the relative viability (EMC-BAC-2; first compound 0.1 µM) of the same compound?
A: The relative viability was 1.23.

Q: And the relative viability (BEN; first compound 0.001 µM)?
A: Its relative viability is 0.0648.

Q: What about the relative viability (BEN; first compound 0.003162 µM) of the same compound?
A: The relative viability was 0.0542.

Q: What about the relative viability (BEN; first compound 0.01 µM) of the same compound?
A: Its relative viability is 0.0592.

Q: What about the relative viability (BEN; first compound 0.1 µM) of the same compound?
A: Its relative viability is 0.0654.

Q: And the relative viability (NCI-H1651; first compound 0.001 µM)?
A: The relative viability was 1.05.

Q: And the relative viability (NCI-H1651; first compound 0.003162 µM)?
A: The relative viability was 1.56.

Q: And the relative viability (NCI-H1651; first compound 0.01 µM)?
A: Its relative viability is 1.43.

Q: And the relative viability (NCI-H1651; first compound 0.03162 µM)?
A: The relative viability was 0.782.

Q: And the relative viability (NCI-H1651; first compound 0.1 µM)?
A: The relative viability was 1.21.

Q: And the relative viability (LK-2; first compound 0.001 µM)?
A: Its relative viability is 0.759.

Q: And the relative viability (LK-2; first compound 0.003162 µM)?
A: Its relative viability is 0.939.

Q: What about the relative viability (LK-2; first compound 0.01 µM) of the same compound?
A: The relative viability was 1.

Q: And the relative viability (LK-2; first compound 0.03162 µM)?
A: The relative viability was 0.743.

Q: And the relative viability (LK-2; first compound 0.1 µM)?
A: Its relative viability is 0.945.

Q: And the relative viability (COR-L 105; first compound 0.001 µM)?
A: Its relative viability is 0.709.

Q: What about the relative viability (COR-L 105; first compound 0.01 µM) of the same compound?
A: Its relative viability is 0.696.

Q: What about the relative viability (COR-L 105; first compound 0.03162 µM) of the same compound?
A: The relative viability was 0.644.

Q: What about the relative viability (COR-L 105; first compound 0.1 µM) of the same compound?
A: Its relative viability is 0.848.

Q: What about the relative viability (HCC-15; first compound 0.001 µM) of the same compound?
A: The relative viability was 0.631.

Q: And the relative viability (HCC-15; first compound 0.003162 µM)?
A: Its relative viability is 0.824.

Q: And the relative viability (HCC-15; first compound 0.01 µM)?
A: Its relative viability is 0.716.

Q: What about the relative viability (HCC-15; first compound 0.03162 µM) of the same compound?
A: Its relative viability is 0.511.

Q: And the relative viability (HCC-15; first compound 0.1 µM)?
A: The relative viability was 0.57.

Q: And the relative viability (NCI-H322M; first compound 0.001 µM)?
A: The relative viability was 1.09.

Q: What about the relative viability (NCI-H322M; first compound 0.003162 µM) of the same compound?
A: The relative viability was 1.51.

Q: And the relative viability (NCI-H322M; first compound 0.03162 µM)?
A: Its relative viability is 0.954.

Q: And the relative viability (NCI-H322M; first compound 0.1 µM)?
A: Its relative viability is 1.16.

Q: And the relative viability (PC-3 [JPC-3]; first compound 0.001 µM)?
A: The relative viability was 0.699.

Q: What about the relative viability (PC-3 [JPC-3]; first compound 0.003162 µM) of the same compound?
A: Its relative viability is 1.

Q: What about the relative viability (PC-3 [JPC-3]; first compound 0.01 µM) of the same compound?
A: The relative viability was 0.888.

Q: And the relative viability (PC-3 [JPC-3]; first compound 0.03162 µM)?
A: Its relative viability is 0.666.

Q: What about the relative viability (PC-3 [JPC-3]; first compound 0.1 µM) of the same compound?
A: The relative viability was 0.741.

Q: And the relative viability (NCI-H838; first compound 0.001 µM)?
A: Its relative viability is 1.09.

Q: And the relative viability (NCI-H838; first compound 0.003162 µM)?
A: Its relative viability is 1.42.

Q: And the relative viability (NCI-H838; first compound 0.01 µM)?
A: The relative viability was 1.54.

Q: What about the relative viability (NCI-H838; first compound 0.03162 µM) of the same compound?
A: Its relative viability is 1.05.

Q: And the relative viability (NCI-H838; first compound 0.1 µM)?
A: Its relative viability is 1.15.

Q: What about the relative viability (HCC-44; first compound 0.001 µM) of the same compound?
A: Its relative viability is 0.845.

Q: What about the relative viability (HCC-44; first compound 0.003162 µM) of the same compound?
A: The relative viability was 1.22.

Q: And the relative viability (HCC-44; first compound 0.01 µM)?
A: The relative viability was 1.39.

Q: And the relative viability (HCC-44; first compound 0.03162 µM)?
A: The relative viability was 0.844.

Q: What about the relative viability (HCC-44; first compound 0.1 µM) of the same compound?
A: The relative viability was 0.999.

Q: And the relative viability (NCI-H460; first compound 0.001 µM)?
A: The relative viability was 1.02.

Q: And the relative viability (NCI-H460; first compound 0.003162 µM)?
A: The relative viability was 1.48.

Q: What about the relative viability (NCI-H460; first compound 0.01 µM) of the same compound?
A: The relative viability was 1.76.

Q: And the relative viability (NCI-H460; first compound 0.03162 µM)?
A: The relative viability was 0.628.

Q: What about the relative viability (NCI-H460; first compound 0.1 µM) of the same compound?
A: Its relative viability is 0.975.

Q: And the relative viability (CAL-12T; first compound 0.003162 µM)?
A: The relative viability was 1.17.

Q: And the relative viability (CAL-12T; first compound 0.01 µM)?
A: The relative viability was 1.17.

Q: What about the relative viability (CAL-12T; first compound 0.03162 µM) of the same compound?
A: The relative viability was 1.02.

Q: And the relative viability (CAL-12T; first compound 0.1 µM)?
A: The relative viability was 0.956.

Q: And the relative viability (NCI-H520; first compound 0.001 µM)?
A: Its relative viability is 1.13.

Q: What about the relative viability (NCI-H520; first compound 0.01 µM) of the same compound?
A: Its relative viability is 1.11.

Q: What about the relative viability (NCI-H520; first compound 0.03162 µM) of the same compound?
A: The relative viability was 0.96.

Q: And the relative viability (NCI-H520; first compound 0.1 µM)?
A: Its relative viability is 1.15.

Q: And the relative viability (LU99A; first compound 0.001 µM)?
A: Its relative viability is 0.761.

Q: And the relative viability (LU99A; first compound 0.003162 µM)?
A: The relative viability was 0.904.

Q: What about the relative viability (LU99A; first compound 0.01 µM) of the same compound?
A: The relative viability was 0.985.

Q: What about the relative viability (LU99A; first compound 0.03162 µM) of the same compound?
A: The relative viability was 0.76.

Q: And the relative viability (LU99A; first compound 0.1 µM)?
A: The relative viability was 0.479.
